Data as given in patent US20240398805A1, “QUINAZOLINE DERIVED COMPOUNDS AS EGFR INHIBITORS AND THEIR USES THEREOF” (ACCUTAR BIOTECHNOLOGY INC., priority 2021, published 2024).

Assays:
Assay type in all cases: cell-based
[1] = system: HCC827-SVD cells (human EGFR exon 20 insertion mutant D770_N771 insSVD); assay: Cell growth inhibition (CellTiter-Glo, 3 days) in HCC827-SVD; conditions: 72 h, 3 days after administration
Experimental: (§1) 1. Preparation of HCC827-SVD, HCC827-ASV and HCC827-YVMA Cell Lines
HCC827-SVD cell line were generated by first transducing HCC827 cells (ATCC) with lentiviral particles expressing codon-optimized human EGFR exon 20 insertion mutant D770_N771 insSVD, and then selecting under 5 μg/ml purimycin treatment for a week.
The resulting cells were further transduced with lentiviral particles carrying EGFR sgRNA and CAS9 to knockout the endogenous alleles of EGFR, and then selected under 500 μg/ml hygromycin B treatment for two weeks. Single clone was subsequently generated by limiting dilution approach. Endogenous EGFR knockout was confirmed by Sanger sequencing of cell genomic DNA and expression of exogenous mutant EGFR was verified by Western blot analysis.
(§2) 2. Cell Growth Inhibition for HCC827, HCC827-SVD, HCC827-ASV, HCC827-YVMA and A431.
(§3) HCC827(ATCC), HCC827-SVD, HCC827-ASV, HCC827-YVMA were seeded in 96-well plates at 5000 cells/well in 90 μl of RPMI growth medium containing 10% FBS and 1% Penicillin Streptomycin. A431 (ATCC) cells were seed in 96-well plates at 5000 cells/well in 90 μl of DMEM growth medium containing 10% FBS and 1% Penicillin Streptomycin. Cells were incubated at 3700 overnight. The following day, the test compound was administered to the cells by using 1 Ox compound stock solution prepared in growth medium at various concentrations. After administration of the compound, cells were then incubated at 3700 for 3 days. Before CeIlTiter-Glo assay, the plates were equilibrated at room temperature for approximately 10 minutes. 100 ul of CelTiter-Glo® Reagent (Promega) was added to each well. The plates were then incubated at room temperature for 10 minutes and luminescence was recorded by EnSpire plate reader (PerkinElmer).

HCC827 cells = assay: Cell growth inhibition (CellTiter-Glo, 3 days) in HCC827; conditions: Homo sapiens, 72 h, 3 days after administration
Experimental: as §2, §3

[2] = system: HCC827-YVMA cells (human ERBB2 exon20 insertion mutant A775_G776ins YVMA); assay: Cell growth inhibition (CellTiter-Glo, 3 days) in HCC827-YVMA; conditions: 72 h, 3 days after administration
Excerpt: as §1
(§4) HCC827-ASV and HCC827-YVMA cell lines were generated in the similar approach as HCC827-SVD except that HCC827 cells (ATCC) were first transduced with lentiviral particles expressing codon-optimized human EGFR exon 20 insertion mutant A769_D770insASV and human ERBB2 exon20 insertion mutant A775_G776ins YVMA, respectively.
as §2, §3

[3] = system: HCC827-ASV cells (human EGFR exon 20 insertion mutant A769_D770insASV); assay: Cell growth inhibition (CellTiter-Glo, 3 days) in HCC827-ASV; conditions: 72 h, 3 days after administration
Excerpt: as §1, §4, §2, §3

A431 cells = assay: Cell growth inhibition (CellTiter-Glo, 3 days) in A431; conditions: Homo sapiens, A-431, 72 h, 3 days after administration
Experimental: as §2, §3

C=CC(=O)N1CCC(Nc2cc3c(Nc4ccc(Oc5ccnc(C(=O)NC(C)(C)C)c5)cc4F)ncnc3cc2OC)CC1 [Compound 167, 4-(4-((6-((1-acryloylpiperidin-4-yl)amino)-7-methoxyquinazolin-4-yl)amino)-3-fluorophenoxy)-N-(tert-butyl)picolinamide]
GI50 [1]: 0.06 to 0.1 µM | GI50 (HCC827 cells): < 0.03 µM | GI50 [2]: 0.06 to 0.1 µM | GI50 [3]: 0.03 to 0.06 µM | GI50 (A431 cells): 0.6 to 1 µM

C=CC(=O)N1CCC(Nc2cc3c(Nc4ccc(Oc5ccnc(C(=O)NC)c5)cc4F)ncnc3cc2OC)CC1 [Compound 181, 4-(4-((6-((1-acryloylpiperidin-4-yl)amino)-7-methoxyquinazolin-4-yl)amino)-3-fluorophenoxy)-N-methylpicolinamide]
GI50 [1]: < 0.03 µM | GI50 (HCC827 cells): < 0.03 µM | GI50 [2]: < 0.03 µM | GI50 [3]: < 0.03 µM | GI50 (A431 cells): 0.1 to 0.3 µM

C=CC(=O)N1CCC(Nc2cc3c(Nc4ccc(Oc5ccnc(NC6CCOCC6)c5)cc4F)ncnc3cc2OC)CC1 [Compound 185, 1-(4-((4-((2-fluoro-4-((2-((tetrahydro-2H-pyran-4-yl)amino)pyridin-4-yl)oxy)phenyl)amino)-7-methoxyquinazolin-6-yl)amino)piperidin-1-yl)prop-2-en-1-one]
GI50 [1]: < 0.03 µM | GI50 (HCC827 cells): < 0.03 µM | GI50 [2]: < 0.03 µM | GI50 [3]: < 0.03 µM | GI50 (A431 cells): 0.1 to 0.3 µM

C=CC(=O)N1CCC(Nc2cc3c(Nc4ccc(Oc5ccnc(-c6nc(C)no6)c5)cc4F)ncnc3cc2OC)CC1 [Compound 191, 1-(4-((4-((2-fluoro-4-((2-(3-methyl-1,2,4-oxadiazol-5-yl)pyridin-4-yl)oxy)phenyl)amino)-7-methoxyquinazolin-6-yl)amino)piperidin-1-yl)prop-2-en-1-one]
GI50 [1]: < 0.03 µM | GI50 (HCC827 cells): 0.03 to 0.06 µM | GI50 [2]: < 0.03 µM | GI50 [3]: < 0.03 µM | GI50 (A431 cells): 0.3 to 0.6 µM

C=CC(=O)N1CCC(Nc2cc3c(Nc4ccc(Oc5ccnc(-c6nnc(C)o6)c5)cc4F)ncnc3cc2OC)CC1 [Compound 193, 1-(4-((4-((2-fluoro-4-((2-(5-methyl-1,3,4-oxadiazol-2-yl)pyridin-4-yl)oxy)phenyl)amino)-7-methoxyquinazolin-6-yl)amino)piperidin-1-yl)prop-2-en-1-one]
GI50 [1]: < 0.03 µM | GI50 (HCC827 cells): 0.1 to 0.3 µM | GI50 [2]: < 0.03 µM | GI50 [3]: < 0.03 µM | GI50 (A431 cells): ≥ 1 µM

C=CC(=O)N1CCC(Nc2cc3c(Nc4ccc(Oc5ccnc(CN6CCOCC6)c5)cc4F)ncnc3cc2OC)CC1 [Compound 210, 1-(4-((4-((2-fluoro-4-((2-(morpholinomethyl)pyridin-4-yl)oxy)phenyl)amino)-7-methoxyquinazolin-6-yl)amino)piperidin-1-yl)prop-2-en-1-one]
GI50 [1]: 0.06 to 0.1 µM | GI50 (HCC827 cells): 0.3 to 0.6 µM | GI50 [2]: < 0.03 µM | GI50 [3]: 0.03 to 0.06 µM | GI50 (A431 cells): 0.6 to 1 µM

C=CC(=O)N1CCC(Nc2cc3c(Nc4ccc(Oc5ccnc(-n6cc(C)cn6)c5)cc4F)ncnc3cc2OC)CC1 [Compound 232, 1-(4-((4-((2-fluoro-4-((2-(4-methyl-1H-pyrazol-1-yl)pyridin-4-yl)oxy)phenyl)amino)-7-methoxyquinazolin-6-yl)amino)piperidin-1-yl)prop-2-en-1-one]
GI50 [1]: 0.03 to 0.06 µM | GI50 (HCC827 cells): 0.06 to 0.1 µM | GI50 [2]: < 0.03 µM | GI50 [3]: < 0.03 µM | GI50 (A431 cells): ≥ 1 µM

C=CC(=O)N1CCC(Nc2cc3c(Nc4ccc(Oc5ccnc(-c6ccccc6)c5)cc4F)ncnc3cc2OC)CC1 [Compound 233, 1-(4-((4-((2-fluoro-4-((2-phenylpyridin-4-yl)oxy)phenyl)amino)-7-methoxyquinazolin-6-yl)amino)piperidin-1-yl)prop-2-en-1-one]
GI50 [1]: 0.03 to 0.06 µM | GI50 (HCC827 cells): 0.06 to 0.1 µM | GI50 [2]: < 0.03 µM | GI50 [3]: < 0.03 µM | GI50 (A431 cells): ≥ 1 µM

C=CC(=O)N1CCC(Nc2cc3c(Nc4ccc(Oc5ccnc(NC6CCC6)c5)cc4F)ncnc3cc2OC)CC1 [Compound 243, 1-(4-((4-((4-((2-(cyclobutylamino)pyridin-4-yl)oxy)-2-fluorophenyl)amino)-7-methoxyquinazolin-6-yl)amino)piperidin-1-yl)prop-2-en-1-one]
GI50 [1]: < 0.03 µM | GI50 (HCC827 cells): 0.03 to 0.06 µM | GI50 [2]: < 0.03 µM | GI50 [3]: < 0.03 µM | GI50 (A431 cells): 0.3 to 0.6 µM

C=CC(=O)N1CCC(Nc2cc3c(Nc4ccc(Oc5ccnc(N6C[C@H](OC)[C@H](OC)C6)n5)cc4F)ncnc3cc2OC)CC1 [Compound 260, 1-(4-((4-((4-((2-((3R,4S)-3,4-dimethoxypyrrolidin-1-yl)pyrimidin-4-yl)oxy)-2-fluorophenyl)amino)-7-methoxyquinazolin-6-yl)amino)piperidin-1-yl)prop-2-en-1-one]
GI50 [1]: < 0.03 µM | GI50 (HCC827 cells): 0.1 to 0.3 µM | GI50 [2]: < 0.03 µM | GI50 [3]: < 0.03 µM | GI50 (A431 cells): ≥ 1 µM

C=CC(=O)N1CCC(Nc2cc3c(Nc4ccc(Oc5ccn(-c6cc(F)c(C)cn6)n5)c(Cl)c4)ncnc3cc2OC)CC1 [Example 17, 1-(4-((4-((3-chloro-4-((1-(4-fluoro-5-methylpyridin-2-yl)-1H-pyrazol-3-yl)oxy)phenyl)amino)-7-methoxyquinazolin-6-yl)amino)piperidin-1-yl)prop-2-en-1-one]
GI50 [1]: 0.1 to 0.3 µM | GI50 (HCC827 cells): 0.06 to 0.1 µM | GI50 [2]: 0.6 to 1 µM | GI50 [3]: 0.6 to 1 µM | GI50 (A431 cells): 0.1 to 0.3 µM

C=CC(=O)N1CCC(Nc2cc3c(Nc4ccc(Oc5ccn(-c6ccc(C)nc6)n5)cc4F)ncnc3cc2OCC)CC1 [Example 18, 1-(4-((7-ethoxy-4-((2-fluoro-4-((1-(6-methylpyridin-3-yl)-1H-pyrazol-3-yl)oxy)phenyl)amino)quinazolin-6-yl)amino)piperidin-1-yl)prop-2-en-1-one]
GI50 [1]: < 0.03 µM | GI50 (HCC827 cells): < 0.03 µM | GI50 [2]: < 0.03 µM | GI50 [3]: < 0.03 µM | GI50 (A431 cells): 0.1 to 0.3 µM

C=CC(=O)N1CCC(Nc2cc3c(Nc4cc(Cl)c(Oc5ccn(-c6cnc(C)c(F)c6)n5)cc4F)ncnc3cc2OC)CC1 [Example 19, 1-(4-((4-((5-chloro-2-fluoro-4-((1-(5-fluoro-6-methylpyridin-3-yl)-1H-pyrazol-3-yl)oxy)phenyl)amino)-7-methoxyquinazolin-6-yl)amino)piperidin-1-yl)prop-2-en-1-one]
GI50 [1]: 0.03 to 0.06 µM | GI50 (HCC827 cells): < 0.03 µM | GI50 [2]: 0.06 to 0.1 µM | GI50 [3]: 0.03 to 0.06 µM | GI50 (A431 cells): 0.1 to 0.3 µM

C=CC(=O)N1CCC(Nc2cc3c(Nc4ccc(Oc5ccn(-c6cnc(C)c(F)c6)n5)c(Cl)c4)ncnc3cc2OC)CC1 [Example 20, 1-(4-((4-((3-chloro-4-((1-(5-fluoro-6-methylpyridin-3-yl)-1H-pyrazol-3-yl)oxy)phenyl)amino)-7-methoxyquinazolin-6-yl)amino)piperidin-1-yl)prop-2-en-1-one]
GI50 [1]: 0.1 to 0.3 µM | GI50 (HCC827 cells): 0.03 to 0.06 µM | GI50 [2]: 0.1 to 0.3 µM | GI50 [3]: 0.06 to 0.1 µM | GI50 (A431 cells): 0.1 to 0.3 µM

C=C(F)C(=O)N1CCC(Nc2cc3c(Nc4ccc(Oc5ccn(-c6cnc(C)c(F)c6)n5)cc4F)ncnc3cc2OC)CC1 [Example 23, 2-fluoro-1-(4-((4-((2-fluoro-4-((1-(5-fluoro-6-methylpyridin-3-yl)-1H-pyrazol-3-yl)oxy)phenyl)amino)-7-methoxyquinazolin-6-yl)amino)piperidin-1-yl)prop-2-en-1-one]
GI50 [1]: ≥ 1 µM | GI50 (HCC827 cells): ≥ 1 µM | GI50 [2]: 0.6 to 1 µM | GI50 [3]: ≥ 1 µM | GI50 (A431 cells): ≥ 1 µM

CC#CC(=O)N1CCC(Nc2cc3c(Nc4ccc(Oc5ccn(-c6cnc(C)c(F)c6)n5)cc4F)ncnc3cc2OC)CC1 [Example 24, 1-(4-((4-((2-fluoro-4-((1-(5-fluoro-6-methylpyridin-3-yl)-1H-pyrazol-3-yl)oxy)phenyl)amino)-7-methoxyquinazolin-6-yl)amino)piperidin-1-yl)but-2-yn-1-one]
GI50 [1]: ≥ 1 µM | GI50 (HCC827 cells): ≥ 1 µM | GI50 [2]: ≥ 1 µM | GI50 [3]: ≥ 1 µM | GI50 (A431 cells): ≥ 1 µM

C=C(F)C(=O)N1CCC(Nc2cc3c(Nc4ccc(Oc5ccn(-c6ccc(C)nc6)n5)cc4F)ncnc3cc2OC)CC1 [Example 25, 2-fluoro-1-(4-((4-((2-fluoro-4-((1-(6-methylpyridin-3-yl)-1H-pyrazol-3-yl)oxy)phenyl)amino)-7-methoxyquinazolin-6-yl)amino)piperidin-1-yl)prop-2-en-1-one]
GI50 [1]: ≥ 1 µM | GI50 (HCC827 cells): ≥ 1 µM | GI50 [2]: ≥ 1 µM | GI50 [3]: ≥ 1 µM | GI50 (A431 cells): ≥ 1 µM
